Source: patent publication US20250213533A1 (GH RESEARCH IRELAND LIMITED, priority 2022, published 2025)

How the values were obtained:
5-HT1A receptors = target: T1, 5-HT1A receptors (Homo sapiens, UniProt P08908); test: Radioligand binding ([3H]8-OH-DPAT) to 5-HT1A receptors in post-mortem human hippocampus membranes
T1 construct: 5-HT1A and 5-HT2A receptors in post-mortem human brain tissue from the hippocampus and frontal cortex, respectively; tissue Edinburgh Sudden Death Brain Bank; host or cells: post-mortem human hippocampus membranes
T1 sequence (P08908 1-422): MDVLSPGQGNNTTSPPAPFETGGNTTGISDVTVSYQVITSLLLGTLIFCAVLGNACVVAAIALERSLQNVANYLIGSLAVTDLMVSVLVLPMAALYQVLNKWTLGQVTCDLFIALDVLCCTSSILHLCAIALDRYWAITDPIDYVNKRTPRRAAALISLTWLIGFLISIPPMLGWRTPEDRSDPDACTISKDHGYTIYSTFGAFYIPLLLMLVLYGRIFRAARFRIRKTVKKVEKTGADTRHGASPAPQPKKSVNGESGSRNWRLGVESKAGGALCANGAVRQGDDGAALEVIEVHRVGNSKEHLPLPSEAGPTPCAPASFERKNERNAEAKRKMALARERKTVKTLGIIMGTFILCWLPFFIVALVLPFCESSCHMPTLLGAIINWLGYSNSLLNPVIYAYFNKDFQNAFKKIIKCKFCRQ

5-HT2A receptors = target: T2, 5-HT2A receptors (Homo sapiens, UniProt P28223); test: Radioligand binding ([3H]MDL-100,907) to 5-HT2A receptors in post-mortem human frontal cortex membranes
T2 construct: 5-HT1A and 5-HT2A receptors in post-mortem human brain tissue from the hippocampus and frontal cortex, respectively; tissue Edinburgh Sudden Death Brain Bank; host or cells: post-mortem human frontal cortex membranes

[1] = tested on: Salmonella typhimurium (TA98, TA100, TA1535 and TA1537); test: Bacterial mutation test, histidine-requiring strains; assay type: cell-based; conditions: up to 5000 μg/plate, absence and presence of rat liver S-9
Method: (§1) These conditions included treatments at concentrations up to 5000 μg/plate (the maximum recommended concentration according to current regulatory guidelines), in the absence and in the presence of a rat liver metabolic activation system (S-9).

[2] = tested on: Escherichia coli (WP2 uvrA pKM101); test: Bacterial mutation test, tryptophan-requiring strain; assay type: cell-based; conditions: up to 5000 μg/plate, absence and presence of rat liver S-9
Method: as §1

[3] = Pharmacokinetics of 5-MeO-DMT and bufotenine after inhalation of 5-MeO-DMT in subjects; assay type: in vivo, human

T2 sequence (P28223 whole entry): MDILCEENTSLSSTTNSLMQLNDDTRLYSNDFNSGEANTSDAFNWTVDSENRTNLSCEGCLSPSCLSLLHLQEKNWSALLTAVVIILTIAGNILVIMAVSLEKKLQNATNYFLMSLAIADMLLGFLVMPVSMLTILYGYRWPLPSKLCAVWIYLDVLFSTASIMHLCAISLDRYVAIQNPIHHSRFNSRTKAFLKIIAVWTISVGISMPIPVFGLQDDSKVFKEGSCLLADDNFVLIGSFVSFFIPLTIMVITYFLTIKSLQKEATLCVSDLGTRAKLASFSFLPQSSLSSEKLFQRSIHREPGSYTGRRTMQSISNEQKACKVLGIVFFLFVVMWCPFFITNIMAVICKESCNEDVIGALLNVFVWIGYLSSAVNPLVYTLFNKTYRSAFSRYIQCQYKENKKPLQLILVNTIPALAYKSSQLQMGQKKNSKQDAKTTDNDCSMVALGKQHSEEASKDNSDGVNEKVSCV

Which “affinity for 5-HT1A receptors (in words)” value (5-HT1A receptors) does the source give for `COc1ccc2[nH]cc(CCN(C)C)c2c1` [5-MeO-DMT] here?
Its value is “high affinity”.

What about the “affinity for 5-HT2A receptors (in words)” value (5-HT2A receptors) of the same compound?
The value was “comparatively weak affinity”.

What about the induction of mutation [1] of the same compound?
The induction of mutation was “did not induce mutation”.

What about the induction of mutation [2] of the same compound?
Its induction of mutation is “did not induce mutation”.

What about the detectability in plasma ([3]; 3 hours after inhalation, 6, 12, 18 mg) of the same compound?
Its detectability in plasma is “no longer detectable”.

What about the absorption and distribution ([3]; inhaled) of the same compound?
Its absorption and distribution is “rapid absorption and distribution”.

And the “pharmacokinetic measurements with uptitration dosing schemes compared with single doses” value ([3]; uptitration, inhaled)?
The value was “Substantially similar results”.
